This is an account of results in PMC2804074 (Journal of medicinal chemistry, 2010).

In general, IC50 refers to the concentration at which inhibition is half-maximal. One may read the inhibition as the share of the control response that was lost under treatment. Low readings indicate a response near the control, high ones a response far below the control.

In data set [1] the target is T1, p38 (Homo sapiens, UniProt Q16539). The data set is described as follows: biochemical.
A further data set concerns the target T2, CYP1A2 (Homo sapiens, UniProt P05177).
T2 sequence (P05177 1-516): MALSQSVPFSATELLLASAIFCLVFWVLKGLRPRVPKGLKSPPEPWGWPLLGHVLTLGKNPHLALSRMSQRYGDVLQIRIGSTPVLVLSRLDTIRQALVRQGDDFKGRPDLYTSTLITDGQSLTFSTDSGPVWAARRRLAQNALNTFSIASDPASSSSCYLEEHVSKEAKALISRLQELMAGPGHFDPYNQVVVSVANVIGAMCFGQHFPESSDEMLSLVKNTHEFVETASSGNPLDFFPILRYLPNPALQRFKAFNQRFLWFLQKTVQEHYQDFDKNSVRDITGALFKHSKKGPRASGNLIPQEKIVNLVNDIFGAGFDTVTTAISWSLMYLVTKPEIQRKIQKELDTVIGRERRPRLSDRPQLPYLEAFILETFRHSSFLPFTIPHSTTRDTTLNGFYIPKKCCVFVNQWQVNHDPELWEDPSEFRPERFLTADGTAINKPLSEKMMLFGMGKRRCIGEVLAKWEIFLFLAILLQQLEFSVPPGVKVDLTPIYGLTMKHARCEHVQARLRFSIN
The data set is described as follows: P450 inhibition, phenaceten demethylation. Format: in vitro ADME. Conditions: probe phenaceten.

A further data set addresses CYP3A4 (Homo sapiens, UniProt P08684). The data set is described as follows: P450 inhibition, midazolam hydroxylation. It is filed as in vitro ADME. Conditions: probe midazolam.
The next data set has as its target CYP2D6 (Homo sapiens, UniProt P10635). The data set is described as follows: P450 inhibition, bufuralol hydroxylation. It is filed as in vitro ADME. Conditions: probe bufuralol.
A further data set has as its target CYP2C9 (Homo sapiens, UniProt P11712). The data set is described as follows: P450 inhibition, tolbutamide hydroxylation. As to conditions: probe tolbutamide. It is filed as in vitro ADME.
The target in the next data set is JNK1 (Homo sapiens, UniProt P45983). The experiment in a line: Homogeneous time resolved fluorescence biochemical assay, JNK1.
Sequence of JNK1 (P45983 whole entry): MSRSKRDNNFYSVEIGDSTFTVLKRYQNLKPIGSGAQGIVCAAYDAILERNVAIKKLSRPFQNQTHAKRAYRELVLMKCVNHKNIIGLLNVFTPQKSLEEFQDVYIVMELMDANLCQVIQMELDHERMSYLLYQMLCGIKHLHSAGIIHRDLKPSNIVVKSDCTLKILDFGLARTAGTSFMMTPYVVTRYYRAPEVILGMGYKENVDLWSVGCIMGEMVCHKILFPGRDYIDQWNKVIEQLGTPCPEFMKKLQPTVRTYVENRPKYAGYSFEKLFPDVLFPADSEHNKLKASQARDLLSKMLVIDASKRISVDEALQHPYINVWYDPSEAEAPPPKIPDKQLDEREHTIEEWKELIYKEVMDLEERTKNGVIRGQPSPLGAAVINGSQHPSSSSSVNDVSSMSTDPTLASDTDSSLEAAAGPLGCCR
Data set [2] relates to c-jun phosphorylation in INS-1 β-pancreatic cells. Format: cell-based, rat. Conditions: for decrease in potency (shift) for c-jun phosphorylation cell-based assay compared to JNK1 biochemical IC50: cell-based versus JNK1 biochemical.
Another data set deals with T3, MKK4 (Homo sapiens, UniProt P45985).
T3 sequence (P45985 1-399): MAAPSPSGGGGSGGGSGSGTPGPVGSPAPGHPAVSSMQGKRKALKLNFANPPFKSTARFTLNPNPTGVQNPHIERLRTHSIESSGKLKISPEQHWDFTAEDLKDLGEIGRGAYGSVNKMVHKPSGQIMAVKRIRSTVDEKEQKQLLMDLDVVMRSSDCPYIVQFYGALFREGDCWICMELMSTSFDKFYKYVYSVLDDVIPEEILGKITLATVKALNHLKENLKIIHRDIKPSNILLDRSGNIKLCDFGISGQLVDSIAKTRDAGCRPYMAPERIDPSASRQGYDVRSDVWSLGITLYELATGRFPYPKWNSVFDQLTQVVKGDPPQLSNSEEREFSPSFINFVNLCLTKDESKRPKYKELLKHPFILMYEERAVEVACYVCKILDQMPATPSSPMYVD
The data set is described as follows: Kinase counterscreen, MKK4. Format: biochemical. As to conditions: 3 μM. A general note: The purpose of a counterscreen is to sort out artefacts and off-target activity.

In the next data set the test system is MLK1-3. The data set is described as follows: Kinase counterscreen, MLK1-3. It is filed as biochemical. As to conditions: 3 μM.
The next data set addresses T4, MKK7 (Homo sapiens, UniProt O14733).
T4 sequence (O14733 1-419): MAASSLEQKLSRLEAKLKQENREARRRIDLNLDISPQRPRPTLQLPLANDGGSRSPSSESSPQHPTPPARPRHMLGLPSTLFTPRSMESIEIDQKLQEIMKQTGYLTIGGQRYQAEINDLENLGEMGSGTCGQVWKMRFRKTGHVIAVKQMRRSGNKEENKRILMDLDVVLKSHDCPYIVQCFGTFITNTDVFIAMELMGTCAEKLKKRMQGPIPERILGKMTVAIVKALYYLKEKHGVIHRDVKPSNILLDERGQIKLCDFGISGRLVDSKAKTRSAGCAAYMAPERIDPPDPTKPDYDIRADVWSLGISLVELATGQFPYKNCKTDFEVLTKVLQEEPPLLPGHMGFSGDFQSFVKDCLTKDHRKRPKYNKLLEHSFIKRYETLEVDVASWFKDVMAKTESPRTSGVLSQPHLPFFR
The experiment in a line: Kinase counterscreen, MKK7. Format: biochemical. Conditions: 3 μM.

The target of a further data set is T5, ASK-1 (Homo sapiens, UniProt Q99683).
T5 sequence (Q99683 1-1374): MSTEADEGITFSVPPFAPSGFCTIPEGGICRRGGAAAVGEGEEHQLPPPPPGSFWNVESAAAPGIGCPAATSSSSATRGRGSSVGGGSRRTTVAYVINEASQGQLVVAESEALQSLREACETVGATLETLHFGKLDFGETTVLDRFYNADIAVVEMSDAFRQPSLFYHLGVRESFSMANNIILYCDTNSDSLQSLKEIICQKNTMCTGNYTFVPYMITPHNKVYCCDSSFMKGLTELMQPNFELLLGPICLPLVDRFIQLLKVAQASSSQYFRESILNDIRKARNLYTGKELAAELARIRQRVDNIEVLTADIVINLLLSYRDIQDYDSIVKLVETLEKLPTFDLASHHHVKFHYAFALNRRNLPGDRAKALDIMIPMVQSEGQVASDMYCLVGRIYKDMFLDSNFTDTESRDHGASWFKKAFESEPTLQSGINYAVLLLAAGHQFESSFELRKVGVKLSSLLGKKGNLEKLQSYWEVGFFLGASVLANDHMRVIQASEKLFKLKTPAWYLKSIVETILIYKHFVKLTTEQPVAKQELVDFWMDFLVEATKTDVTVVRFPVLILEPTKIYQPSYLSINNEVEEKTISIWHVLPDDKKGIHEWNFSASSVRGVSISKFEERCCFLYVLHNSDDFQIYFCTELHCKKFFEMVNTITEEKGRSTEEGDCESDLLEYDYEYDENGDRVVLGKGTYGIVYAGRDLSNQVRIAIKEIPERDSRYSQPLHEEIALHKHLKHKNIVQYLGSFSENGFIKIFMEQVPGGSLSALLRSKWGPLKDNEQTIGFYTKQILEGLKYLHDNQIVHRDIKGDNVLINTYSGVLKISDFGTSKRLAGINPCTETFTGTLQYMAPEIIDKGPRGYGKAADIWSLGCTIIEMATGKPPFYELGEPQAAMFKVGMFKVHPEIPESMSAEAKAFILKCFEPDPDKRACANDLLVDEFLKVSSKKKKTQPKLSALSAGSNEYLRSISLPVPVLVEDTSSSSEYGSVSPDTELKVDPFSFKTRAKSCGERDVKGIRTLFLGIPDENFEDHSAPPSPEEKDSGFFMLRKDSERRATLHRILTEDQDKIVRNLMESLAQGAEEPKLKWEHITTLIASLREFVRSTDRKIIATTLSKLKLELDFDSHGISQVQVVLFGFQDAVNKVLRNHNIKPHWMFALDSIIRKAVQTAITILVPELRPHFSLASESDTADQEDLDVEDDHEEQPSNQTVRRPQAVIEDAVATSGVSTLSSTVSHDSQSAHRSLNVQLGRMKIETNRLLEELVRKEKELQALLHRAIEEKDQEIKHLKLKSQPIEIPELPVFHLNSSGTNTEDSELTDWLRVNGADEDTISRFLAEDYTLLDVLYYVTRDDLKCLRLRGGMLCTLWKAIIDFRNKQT
The experiment in a line: Kinase counterscreen, ASK-1. Format: biochemical. As to conditions: 3 μM.

Another data set concerns panel of 400 kinases. The experiment in a line: Broad counterscreening against a panel of 400 kinases. Format: biochemical. Conditions: 3 μM; out of 400 kinases.
Another data set has as its system MAPK3K1-4. The data set is described as follows: Kinase counterscreen, MAPK3K1-4. As to conditions: 3 μM. Format: biochemical.
The test system of data set [3] is inteleukine-2 (IL-2) release in Jurkat cells. As to conditions: 10 μM compound; cited from earlier work.
The test system of data set [4] is transient global ischemia. Conditions: gerbils; i.p. doses ≥ 60 mg/kg; cited from earlier work.
The next data set has as its target JNK3 (Homo sapiens, UniProt P53779).
A short description of data set [5]: Microsomal stability, rat. As to conditions: 2 mg/mL rat liver microsomes, 1 μM compound. It is filed as in vitro ADME. A general note: Microsomes from liver hold many membrane-bound enzymes, among them those of drug oxidation.
The nature of data set [6]: Microsomal stability, mouse. Format: in vitro ADME. As to conditions: 2 mg/mL mouse liver microsomes, 1 μM compound.
Data set [7] can be described thus: Microsomal stability, human. Conditions: 2 mg/mL human liver microsomes, 1 μM compound. It is filed as in vitro ADME.
In data set [8] the target is T1, p38. Conditions: JNK versus p38.

Sequence of CYP3A4 (P08684 whole entry): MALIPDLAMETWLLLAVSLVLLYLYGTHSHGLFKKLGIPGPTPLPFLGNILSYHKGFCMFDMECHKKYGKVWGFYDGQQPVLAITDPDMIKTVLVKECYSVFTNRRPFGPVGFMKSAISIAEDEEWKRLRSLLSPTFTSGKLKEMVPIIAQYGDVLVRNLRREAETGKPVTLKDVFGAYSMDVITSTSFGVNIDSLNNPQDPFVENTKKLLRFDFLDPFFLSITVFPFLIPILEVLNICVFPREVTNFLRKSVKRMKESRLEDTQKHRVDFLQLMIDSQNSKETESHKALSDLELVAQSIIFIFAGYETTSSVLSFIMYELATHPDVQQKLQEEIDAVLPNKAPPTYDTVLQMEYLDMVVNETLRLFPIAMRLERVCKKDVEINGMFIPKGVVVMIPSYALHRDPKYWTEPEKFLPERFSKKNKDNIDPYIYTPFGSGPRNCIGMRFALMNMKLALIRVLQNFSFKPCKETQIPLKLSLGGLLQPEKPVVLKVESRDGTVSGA
Sequence of CYP2D6 (P10635 whole entry): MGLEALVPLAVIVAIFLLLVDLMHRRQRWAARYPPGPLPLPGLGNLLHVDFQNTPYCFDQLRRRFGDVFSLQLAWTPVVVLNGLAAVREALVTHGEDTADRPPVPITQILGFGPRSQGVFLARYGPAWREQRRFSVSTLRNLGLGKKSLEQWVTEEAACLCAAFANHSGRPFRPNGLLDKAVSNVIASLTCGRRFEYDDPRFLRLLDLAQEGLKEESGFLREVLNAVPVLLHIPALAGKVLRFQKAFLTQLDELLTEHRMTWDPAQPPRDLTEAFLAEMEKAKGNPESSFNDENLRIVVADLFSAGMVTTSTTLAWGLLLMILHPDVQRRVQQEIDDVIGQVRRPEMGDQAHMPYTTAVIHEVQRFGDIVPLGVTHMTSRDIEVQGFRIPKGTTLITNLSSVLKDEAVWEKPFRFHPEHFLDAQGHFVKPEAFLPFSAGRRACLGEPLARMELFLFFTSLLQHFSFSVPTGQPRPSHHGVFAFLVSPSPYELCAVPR
Sequence of CYP2C9 (P11712 whole entry): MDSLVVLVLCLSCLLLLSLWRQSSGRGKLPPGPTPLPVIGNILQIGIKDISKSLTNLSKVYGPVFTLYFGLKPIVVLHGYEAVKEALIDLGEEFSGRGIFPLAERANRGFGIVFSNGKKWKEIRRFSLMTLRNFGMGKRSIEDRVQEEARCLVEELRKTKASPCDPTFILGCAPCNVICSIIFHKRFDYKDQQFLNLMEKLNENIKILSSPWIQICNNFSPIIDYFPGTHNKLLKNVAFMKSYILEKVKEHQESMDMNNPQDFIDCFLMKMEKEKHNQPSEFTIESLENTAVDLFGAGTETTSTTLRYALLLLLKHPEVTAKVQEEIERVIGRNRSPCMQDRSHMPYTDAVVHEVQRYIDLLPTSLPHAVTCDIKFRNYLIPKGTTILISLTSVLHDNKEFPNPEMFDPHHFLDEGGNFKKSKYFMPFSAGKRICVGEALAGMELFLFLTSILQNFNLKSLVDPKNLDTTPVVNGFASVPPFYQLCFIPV
T1 sequence (Q16539 whole entry): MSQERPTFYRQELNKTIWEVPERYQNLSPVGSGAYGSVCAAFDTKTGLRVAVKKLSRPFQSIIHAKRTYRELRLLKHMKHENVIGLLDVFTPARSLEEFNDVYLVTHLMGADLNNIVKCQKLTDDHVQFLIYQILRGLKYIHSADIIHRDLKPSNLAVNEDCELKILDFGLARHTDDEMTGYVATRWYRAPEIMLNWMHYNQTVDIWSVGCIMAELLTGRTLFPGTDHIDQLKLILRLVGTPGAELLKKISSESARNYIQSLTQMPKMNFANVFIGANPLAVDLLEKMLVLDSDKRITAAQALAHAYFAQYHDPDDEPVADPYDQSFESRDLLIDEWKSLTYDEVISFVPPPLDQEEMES
Sequence of JNK3 (P53779 1-422 isoform P53779-2): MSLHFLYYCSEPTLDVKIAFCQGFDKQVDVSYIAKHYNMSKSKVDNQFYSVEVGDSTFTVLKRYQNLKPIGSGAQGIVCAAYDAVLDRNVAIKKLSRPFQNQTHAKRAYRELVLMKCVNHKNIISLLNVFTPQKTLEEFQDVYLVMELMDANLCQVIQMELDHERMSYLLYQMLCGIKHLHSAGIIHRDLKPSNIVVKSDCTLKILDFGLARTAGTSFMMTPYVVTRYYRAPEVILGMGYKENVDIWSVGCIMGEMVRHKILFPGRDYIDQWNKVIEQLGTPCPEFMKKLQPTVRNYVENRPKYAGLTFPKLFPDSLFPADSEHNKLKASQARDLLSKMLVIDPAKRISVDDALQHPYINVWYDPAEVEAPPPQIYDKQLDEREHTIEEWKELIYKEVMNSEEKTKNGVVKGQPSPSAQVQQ

In the case of `Cc1ncn(-c2ccc(Nc3nccc(-c4cccc(N5CCOCC5)c4)n3)cc2)n1` [Compound 9f], at p38 [1], the IC50 is more than 20 µM. Besides, the inhibition at 15 min, 10 µM against CYP1A2, at CYP3A4, on CYP2D6 and against CYP2C9 was less than 50% in each case.
Turning to `c1cc(-c2ccnc(Nc3ccc(-n4ccnn4)cc3)n2)cc(N2CCOCC2)c1` [Compound 9c], the IC50 on p38 [1] was more than 20 µM.
On to `N#Cc1cc(-c2ccnc(Nc3ccc(-n4cnc(-c5ccccn5)n4)cc3)n2)cc(N2CCOCC2)c1` [Compound 9j, 3-Morpholino-5-(2-(4-(3-(pyridin-2-yl)-1H-1,2,4-triazol-1-yl)phenylamino)pyrimidin-4-yl)benzonitrile], for which the IC50 against p38 [1] was more than 20 µM. In addition, the inhibition at 15 min, 10 µM at CYP1A2, against CYP3A4, against CYP2D6 and on CYP2C9 was not above 33% in each case.
For the compound `Cn1nnc(-c2ccc(Nc3nccc(-c4cc(C#N)cc(N5CCOCC5)c4)n3)cc2)n1` [Compound 9h, 3-(2-(4-(2-methyl-2H-tetrazol-5-yl)phenylamino)pyrimidin-4-yl)-5-morpholinobenzonitrile], the IC50 against p38 [1] is more than 20 µM. Besides, the inhibition at 15 min, 10 µM against CYP1A2, against CYP3A4, against CYP2D6 and on CYP2C9 was not above 15% throughout. The “difference in IC50 for JNK1 compared to 9g” value on JNK1 (compared to 9g) is listed as “less than 2 fold”. Besides, the “difference in IC50 for c-jun phosphorylation compared to 9g” value in data set [2] (compared to 9g) is listed as “less than 2 fold”.
Turning to `Fc1cc(-c2cc[nH]/c(=N/c3ccc(-n4cnc(N5CCOCC5)n4)cc3)n2)cc(N2CCOCC2)c1` [Compound 9l], the “inhibition of MKK4” value against MKK4 is “no inhibition”. The IC50 on p38 [1] is more than 20 µM; in [2] (read-out: cell-based IC50, inhibition of c-jun phosphorylation) it was approximately 0.05 µM. For the same compound, the “inhibition of MLK1-3” value with MLK1-3 is recorded as “no inhibition”. Besides, the “inhibition of MKK7” value at MKK7 is recorded as “no inhibition”. In addition, the inhibition at 15 min, 10 µM against CYP1A2, against CYP3A4 and at CYP2C9 was 70 to 90% throughout. In addition, the “inhibition of ASK-1” value at ASK-1 is given as “no inhibition”. Moreover, the “number of kinases showing > 25% inhibition” value with panel of 400 kinases was found to be 28. Further, the “number of kinases showing greater than 70% biochemical inhibition” value in the data set on panel of 400 kinases is listed as “eleven”. In addition, the “inhibition of MAPK3K1-4” value in the data set on MAPK3K1-4 was “no inhibition”.
At p38 [1], `CS(=O)(=O)Nc1ccc(-c2ccnc(Nc3ccc(S(N)(=O)=O)cc3)n2)cc1` [Compound 9d] registered an IC50 of more than 20 µM.
Compound `CN1CCN(c2ncn(-c3ccc(Nc4nccc(-c5cc(F)cc(N6CCOCC6)c5)n4)cc3)n2)CC1` [Compound 9k] came in with a half-maximal inhibitory concentration (IC50) on p38 [1] of more than 20 µM. The “decrease in potency (shift) for c-jun phosphorylation cell-based assay compared to JNK1 biochemical IC50” value (from here on “decrease in potency (shift)”) in data set [2] is given as “essentially equipotent”.
Compound `NC(=O)c1ccc(Nc2nccc(-c3ccccc3)n2)cc1` [Compound 9a] returned an IC50 against p38 [1] of more than 20 µM.
For the compound “1,3-benzothiazol-2-yl (2-[[2-(3-pyridinyl) ethyl] amino]-4 pyrimidinyl) acetonitrile [AS601245]”, in data set [3], the “inhibition of IL-2 release in Jurkat cells” value is on record as 90%. Further, the “efficacy in transient global ischemia models” value in [4] was “efficacious”.
On p38 [1], `c1cncc(-c2ncn(-c3ccc(Nc4nccc(-c5cccc(N6CCOCC6)c5)n4)cc3)n2)c1` [Compound 9i, 4-(3-Morpholinophenyl)-N-(4-(3-(pyridin-3-yl)-1H-1,2,4-triazol-1-yl)phenyl)pyrimidin-2-amine] yielded an IC50 of more than 20 µM.
With `CS(=O)(=O)Nc1ccc(-c2ccnc(Nc3ccc(-n4ccnn4)cc3)n2)cc1` [Compound 9e], at JNK3 (compared to 9c), the “fold more potent versus JNK3 than compound 9c” value was found to be 91 fold. The “Microsomal Stability (half life), rat” value in data set [5] was “poor microsomal stability”. In addition, the IC50 against p38 [1] is more than 20 µM. Also, in data set [6], the “Microsomal Stability (half life), mouse” value is “poor microsomal stability”. Further, the “Microsomal Stability (half life), human” value in data set [7] is “poor microsomal stability”. For the same compound, the “decrease in potency (shift)” value in [2] was 13 fold.
With `Cc1ncn(-c2ccc(Nc3nccc(-c4cc(C#N)cc(N5CCOCC5)c4)n3)cc2)n1` [Compound 9g], on JNK3 (compared to 9f), the “increase in potency for JNK3 inhibition compared to 9f” value is listed as “approximately 5 fold”. Also, the “selectivity over p38” value at p38 [8] was “greater than 135 fold”. This compound showed an IC50 at p38 [1] of more than 20 µM. Further, at JNK1 (compared to 9f), the “increase in potency for JNK1 inhibition compared to 9f” value is given as “approximately 5 fold”. The “decrease in potency (shift)” value in [2] is given as “essentially equipotent”.
